Experimental data from patent EP0847397B1, “WATER-SOLUBLE C-RING ANALOGUES OF 20 (S)-CAMPTOTHECIN” (DR. REDDY'S RESEARCH FOUNDATION, priority 1996, dated 1997).
≈ marks a conversion by molar mass, not a printed value.

How the values were obtained:
SF-268 = assay: In vitro activity after 1 hour exposure (Sulforhodamine B); assay type: cell-based; conditions: Homo sapiens
Procedure: (§1) 6. In vitro activity after 1 hour exposure:
(§2) Grow the cells in 15 ml of Complete Medium (RPM1-1640 with 10% Fetal bovine serum and 0.2% NaHCO3) for 3-5 days to obtain a cell number of 10^6 cells/flask. The medium is removed and the attached cells are washed with Phosphate Buffered Saline (PBS). 1 ml of 0.1% Trypsin-EDTA is added and incubated for 5 min at 37°C. Tap the flasks gently and add 5 ml of complete medium. Remove cell suspension and centrifuge at 2000 rpm for 5 min. Discard the supernatant and suspend the pellet in 5 ml of complete medium. Count the cell number in a haemocytometer. Dilute the cell suspension to 10,000 cells/100 µl in complete medium. Plate out 100 µl of cell suspension in each of 96 well microtitre plate and incubate for 24 hrs at 37°C. and 5% CO2. Terminate the reference blank (plated out separately) with 25 µl of 50% cold Trichloroacetic acid (TCA). Incubate for 1 hour at 4°C. Wash the plate (five times) with deionized water. Air dry and preserve the plate at 4°C. for determination of T0 value. Prepare suitable dilution of the test compound in complete medium and add 100 µl to each well to maintain the final concentration ranging between 10^-4M and 10^-8M. Incubate for 1 hr at 37°C. and 5% CO2. Centrifuge the microtitre plate at 1000 rpm for 5 min. Remove the supernatant. Wash the cells twice with 100 µl of PBS to remove the traces of test compound. Add 200 µl of complete medium to each well and incubate for 48 hours at 37°C. and 5% CO2. Terminate the cell growth with the addition of 50 µl of 50% cold TCA. Incubate the plate for 1 hr at 4°C. Wash the plates with deionized water (five times) and air dry. Add 100 µl of Sulforhodamine B solution (0.4% in 1% acetic acid) to each well. Keep at room temperature for 15 minutes. Wash (five times) with 1% acetic acid and air dry. Add 100 µl of 10mM Trizma base (Sigma), shake gently on plate shaker for 15 minutes and read the optical density at 490 nm in Spectrophotometric plate reader. (as per the protocol followed by the U.S. National Cancer Institute.

DU-145 = assay: as above; assay type: cell-based; conditions: Homo sapiens; DU-145, 1 hour exposure then 48 hours drug-free
Procedure: as §1, §2

MCF-7/ADR = assay: as above; assay type: cell-based; conditions: Homo sapiens, NCI/ADR-RES, 1 hour exposure then 48 hours drug-free
Procedure: as §1, §2

HOP-62 = assay: as above; assay type: cell-based; conditions: Homo sapiens; HOP-62, 1 hour exposure then 48 hours drug-free
Procedure: as §1, §2

OVCAR-8 = assay: as above; assay type: cell-based; conditions: Homo sapiens; OVCAR-8, 1 hour exposure then 48 hours drug-free
Procedure: as §1, §2

UACC-62 = assay: as above; assay type: cell-based; conditions: Homo sapiens; UACC-62, 1 hour exposure then 48 hours drug-free
Procedure: as §1, §2

ACHN = assay: as above; assay type: cell-based; conditions: Homo sapiens, 1 hour exposure then 48 hours drug-free
Procedure: as §1, §2

H 460 = assay: NCI in vitro 60 human tumor cell line assay; assay type: cell-based; conditions: Homo sapiens, NCI-H460, 48 h, read-out: Total Growth Inhibition (TGI)
Procedure: (§3) Each test compound was screened against a battery of 60 human cell lines obtained from eight organs. In a typical procedure, the cell suspensions that were diluted according to the particular cell type and the expected target cell density (5000-40,000 cells per well based on cell growth characteristics) were added into 96-well microtiter plates. Inoculates were allowed a preincubation period of 24h at 37°C. for stabilization. Dilutions at twice the intended test concentrations were added at time zero in 100-µl aliquots to microtiter plate wells. Usually test compounds were evaluated at five 10-fold dilutions. The highest well concentration used in the test is 10^-4M. The cells are then incubated in the presence of drug (the test compound) for further 48h in 5% CO2 atmosphere and 100% humidity. At the end of this time, the adherent cells are fixed to the plate by means of trichloroacetic acid, and after a number of washes, the cell layer is treated with the protein stain Sulforhodamine B. The optical density which is proportional to protein mass, is then read by automated spectrophotometric plate readers at a wavelength of 515 nm. Readings are transferred to a microcomputer and final reports are generated using especially developed software.

HCC 2998 = assay: NCI in vitro 60 human tumor cell line assay; assay type: cell-based; conditions: Homo sapiens, HCC 2998, 48 h, read-out: Total Growth Inhibition (TGI)
Procedure: as §3

HCT 15 = assay: NCI in vitro 60 human tumor cell line assay; assay type: cell-based; conditions: HCT-15, 48 h, read-out: Total Growth Inhibition (TGI)
Procedure: as §3

[1] = Solubility by routine method; assay type: physicochemical; conditions: deionized water, 37°C
Procedure: 5. Solubility by routine method:
Compound was suspended in 5 ml of deionized water and heated to 37°C. for 10 min. Then, the solution was filtered and the filtrate was evaporated to drying using methanol and the solid residue was weighed.

[2] = MTD in Swiss albino mice (single dose); conditions: mouse, in vivo, 14 days observation
Procedure: 1. MTD in Swiss albino mice:
Each Swiss Albino mouse is injected with a single does of the test compound on a day designated as Day 1: Doses that were tested are 400, 200, 100, 50, 25, 12.5, 8.3, 6.25 and 3.13 mg/kg body weight. […] (As per the protocol followed by the U.S. National Cancer Institute)

[3] = Solubility by HPLC method; assay type: physicochemical; conditions: aqueous buffer, 0.1M sodium acetate buffer pH 5.0, 24 hours, room temperature
Procedure: 4. Solubility by HPLC method:
Excess of compound was soaked in 0.5 ml of 0.1M sodium acetate buffer at pH 5.0 for 24 hours at room temperature. The solution was filtered through 0.45 micron PVDF syringe filter (Gelman Sciences). The filtrate was injected into HPLC at different volumes (10 & 20 µl). Chromatograms were recorded. Responses recorded were extrapolated from the calibration curve and the solubility of the compound was calculated. (J. Med. Chem., 1995; 38: 400)

Pharmacokinetics at MTD = assay type: in vivo, Swiss albino mice; conditions: mouse, ip, intraperitoneal, plasma; for AUC(0-t): DMSO:water (50:50), read-out: AUC0-1
Procedure: 3. Pharmacokinetics at MTD:
All studies were carried out in Swiss albino mice in the weight range 35-40 g. The animals were fasted overnight prior to dosage of the drug and were fed 3 hours after dosing. The animals were dosed intraperitonially as a solution in DMSO:water (50:50; v/v). Blood samples were drawn from orbital sinus at 1, 2, 4, 6 and 8 hours after administration of the dose into heparinized tubes, centrifuged at 13000 RPM for 10 min. Plasma samples were separated and analyzed by HPLC. To 50 µl of the sample, 100 µl of chilled acidified methanol was added and mixed to precipitate proteins. The sample was centrifuged at 13,000 RPM for 10 min. 100 µl of supernatant was made up to 200 µl with methanol:water (50:50; v/v) and 100 µl was injected on HPLC. Peak area of the drug was used for quantification. Calibration, control and recovery samples were prepared by spiking 50 µl of blank plasma with known amounts of the drug and processed in the same manner as the samples. (J. Natl. Cancer Inst., 1996; 88:817-824).

HT 29 = assay: NCI in vitro 60 human tumor cell line assay; assay type: cell-based; conditions: Homo sapiens, HT-29, 48 h, read-out: Total Growth Inhibition (TGI)
Procedure: as §3

HOP 92 = assay: NCI in vitro 60 human tumor cell line assay; assay type: cell-based; conditions: HOP-92, 48 h, read-out: Total Growth Inhibition (TGI)

Which results are given for `CC[C@@]1(O)C(=O)OCc2c1cc1n(c2=O)C(OCCO)c2cc3ccccc3nc2-1` (some centres unmarked) [Example 26, 5-(2'-Hydroxyethoxy)camptothecin]?
GI50 (SF-268): > 100 µM; GI50 (DU-145): 50 µM; GI50 (MCF-7/ADR): > 100 µM; GI50 (HOP-62): > 100 µM; GI50 (OVCAR-8): > 100 µM; GI50 (UACC-62): 0.075 µM; GI50 (ACHN): > 100 µM; IC (TGI) (H 460): 1 µM; IC (TGI) (HCC 2998): 10.5 µM; IC (TGI) (HCT 15): 36.3 µM; solubility at 10 min [1]: 6000 µg/mL (≈ 14.7 mM); MTD at 336 h ([2]; intravenous): 25 to 50 mg/kg; MTD at 336 h ([2]; ip, intraperitoneal): 200 mg/kg; solubility at 24 h [3]: 800 µg/mL (≈ 1.96 mM); AUC(0-t) (Pharmacokinetics at MTD): 562 ± 41.8 µM·h; Cmax (Pharmacokinetics at MTD): 264 ± 21.9 µM; Tmax (Pharmacokinetics at MTD): 1 h; half-life (Pharmacokinetics at MTD): 1.84 ± 0.3 h; k el (Pharmacokinetics at MTD): 0.000106 s⁻¹; IC (TGI) (HT 29): 46 µM

What does the source list for `CC[C@@]1(O)C(=O)OCc2c1cc1n(c2=O)C(OCC(F)(F)F)c2cc3cc(O)ccc3nc2-1` (some centres unmarked) [Example 27, 10-Hydroxy-5-trifluoroethoxycamptothecin]?
GI50 (SF-268): > 100 µM; GI50 (DU-145): 0.35 µM; GI50 (MCF-7/ADR): 60 µM; GI50 (HOP-62): 2 µM; GI50 (OVCAR-8): 75 µM; GI50 (UACC-62): 9 µM; GI50 (ACHN): 8 µM; IC (TGI) (H 460): 5.09 µM; IC (TGI) (HCC 2998): 7.67 µM; IC (TGI) (HCT 15): 20 µM; solubility at 10 min [1]: 2000 to 3000 µg/mL (≈ 4.33 to 6.49 mM); MTD at 336 h ([2]; intravenous): 200 mg/kg; MTD at 336 h ([2]; ip, intraperitoneal): 400 mg/kg; solubility at 24 h [3]: 500 µg/mL (≈ 1.08 mM); IC (TGI) (HOP 92): 4.88 µM; AUC(0-t) (Pharmacokinetics at MTD): 23.1 ± 2.7 µM·h; Cmax (Pharmacokinetics at MTD): 7.4 ± 0.8 µM; Tmax (Pharmacokinetics at MTD): 1.33 ± 0.6 h; half-life (Pharmacokinetics at MTD): 2.38 ± 0.2 h; k el (Pharmacokinetics at MTD): 8.06e-05 s⁻¹; IC (TGI) (HT 29): 2.41 µM
